Reference: US11389497B2, “Pharmaceutical composition for treating cancer” (Institute of Advance Sciences, Inc., priority 2019, dated 2022)
Read-outs that look alike come from different tables or passages of the source.

Assays:
ST88-14 cells [1] = assay: MTS cell viability / proliferation assay; type: cell-based, human; details: OSHP-1 50-300 ng/ml, 0-72 h
Procedure: FIG. 4 illustrates a report on cell Viability Assays using the MTS Assay Kit (Colorimetric) (ab 197010) Cell proliferation, in accordance with an exemplary embodiment of the present disclosure. As shown, viability and cytotoxicity was assessed on cells. Cells were treated with the appropriate concentrations of OSHP-1 for 24, 48 and 72 h.
Effect of OSHP-1 on Cell proliferation: We performed MTS assays using cells and treated with increasing concentrations of OSHP-1 (50-300 ng/ml) for 0-72 h.

ST88-14 cells [2] = assay: Real-time quantitative PCR of tumorigenic genes in ST88-14 cells; type: cell-based, human; details: 48 h, normalized by GAPDH
Procedure: Effect of OSHP-1 on the expression of tumorigenic genes. To ascertain whether OSHP-1 decreased the proliferation of ST 88-14 cells, by decreasing the expression of tumorigenic genes, total RNA was isolated from the ST88-14 cells as well as normal Human Schwann cells treated with varying concentrations of OSHP-1 (for 48 h) mentioned above. The RNA was reverse transcribed to cDNA and subjected to quantitative PCR using reverse and forward primers of FAX2, FOXN4, IGF2 TLXI genes (Lee et 2014), and was normalized by the expression of GAPDH (FIG. 5A).

[3] = tested on: lysine acetyltransferase 7 (KAT 7); assay: Immunoblot of nuclear fraction for histone acetyl transferases; type: cell-based, human; details: nuclear extract of ST88-14 cells, OSHP-1 50-300 ng/ml, 48 h
HDAC2 = assay: Immunoblot of nuclear fraction for NuRD components; type: cell-based, human; details: nuclear extract of ST88-14 cells, OSHP-1 50-300 ng/ml, 48 h
Excerpt: CBP, KAT2A, KAT7 acetyl transferases and CHD4, MTA2, MBD2/3, HDAC2, GATA 2 (NuRD) components and b-actin antibodies.

ST88-14 cells [4] = assay: Soft Agar colony formation assay (anchorage independent growth); type: cell-based, human; details: colonies counted manually
Excerpt: FIG. 7A illustrates a report on effect of OSHP-1 on anchorage independent growth or metastasis, in accordance with an exemplary embodiment of the present disclosure: To determine whether OSHP-1 and its individual components can block the anchorage independent growth of ST88-14 cells, and Normal Human Schwann Cells, by subjecting the cells to Soft Agar colony formation assays the absence and presence of (A) OSHP-1.
FIG. 7B illustrates a report on AA, RA, CA and mixture of three, and the colonies were counted manually, in accordance with an exemplary embodiment of the present disclosure.
(§1) Effect of OSHP-1 on anchorage independent growth or metastasis. To determine whether OSHP-1 and its individual components can block the anchorage independent growth of ST-8814 cells, and Normal Human Schwann by subjecting the cells to Soft Agar colony formation assays in the absence and presence of OSHP-1, AA, RA, CA and mixture of three, and the colonies were counted manual. […] Additionally, we also tested whether OSHP-1 and AA, RA, and CA affect the invasiveness of human metastatic melanoma.

ST88-14 cells [5] = assay: Scratch assay in ST88-14 cells; type: cell-based, human
Excerpt: FIG. 7C illustrates a report on a scratch assay protocol performed using ST88-14 cells in the absence or presence of OSHP-1, AA, RA, CA, in accordance with an exemplary embodiment of the present disclosure.
as §1

[6] = tested on: human metastatic melanoma; assay: Scratch assay in human metastatic melanoma; type: cell-based

Molecule	viability and proliferation of ST88-14 cells (ST88-14 cells [1])	FAX2 (PAX2) expression (ST88-14 cells [2])	IGF2 expression (ST88-14 cells [2])	TLXI (TLX2) expression (ST88-14 cells [2])	lysine acetyl transferase KAT 7 activity / levels [3]	HDAC2 activity / levels (HDAC2)	anchorage independent growth (ST88-14 cells [4])	invasion and metastasis in scratch assay (ST88-14 cells [5])	invasion and metastasis in scratch assay (ST88-14 cells [5]; listed as RA)	migration of cells in scratch assay [6]	FOXN4 expression (ST88-14 cells [2])
CN1c2c(nc(N)[nH]c2=O)NCC1CNc1ccc(C(=O)N[C@@H](CCC(=O)O)C(=O)O)cc1 (some centres unmarked) [MTHF, 5-methyl tetra hydro folate]	increases the cell proliferation										
O=C1O[C@H]([C@@H](O)CO)C(O)=C1O [ascorbic acid]		down-regulated	down-regulated	down-regulated	decreased	increased					
O=C(/C=C/c1ccc(O)c(O)c1)O[C@H](Cc1ccc(O)c(O)c1)C(=O)O [rosmarinic acid]		down-regulated	down-regulated	down-regulated			responsible for the blocking of anchorage independent growth	decreased metastasis	responsible for the blocking of anchorage independent growth, invasion and metastasis of MPNSTs	the one contributing to this property	
caffeoylquinic acid		down-regulated	down-regulated		decreases						down-regulated
